For orientation: IC50 means the concentration that inhibits the measured activity by half.

Read-outs that look alike come from different tables or passages of the source.

Drawing on patent publication US20260234165A1, “MACROCYCLIC COMPOUNDS, PREPARATION METHOD THEREFOR, AND USE THEREOF” (GENFLEET THERAPEUTICS (SHANGHAI) INC., priority 2004, published 2026), this text covers IC50 for eleven compounds.

Holding throughout (type): cell-based, human
One test deals with NCI-H441 cells. The test can be described thus: 3D cell proliferation assay (CellTiter Glo-3D), NCI-H441. To be noted: medium with 2% FBS, read-out: H441 AP IC50. Summed up:
(§1)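 NCI-H441 ([…] lung) and AsPC-1 (KRAS G12D pancreatic) cells, 800 per well, were seeded in RPMI-1640 with 2% FBS and dosed next day with 3.16-fold compound dilutions (0.1% DMSO). After 5 days at 37 °C, CellTiter-Glo 3D luminescence gave inhibition versus DMSO and blank; IC50 from four-parameter fit.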

The test system of test [1] is p-ERK in NCI-H441 cells (KRAS G12V mutation). The test can be described thus: Cell p-ERK assay (HTRF) in NCI-H441 cells. To be noted: NCI-H441 cells, 3 h compound incubation, HTRF p-ERK T202/Y204, read-out: H441 p-ERK IC50. Summed up: (§2)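 AsPC-1 (10000/well) or NCI-H441 (20000/well) cells were seeded in RPMI-1640 with 10% FBS, grown overnight, then exposed to 3.16-fold compound dilutions (0.1% DMSO) for 3 h at 37 °C. Lysates were read for phospho-ERK T202/Y204 by HTRF; IC50 came from four-parameter fits of inhibition versus DMSO and blank wells.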
On the technique in general: In TR-FRET formats the signal depends on donor and acceptor labels being close together.

Test [2] has as its system AsPC-1 cells (KRAS G12D mutation). The test can be described thus: 3D cell proliferation assay (CellTiter Glo-3D), AsPC-1. To be noted: medium with 2% FBS, read-out: AsPC-1 AP IC50. Put shortly: as §1
In test [3] the test system is p-ERK in AsPC-1 cells (KRAS G12D mutation). Kind of test: Cell p-ERK assay (HTRF) in AsPC-1 cells. To be noted: AsPC-1 cells, 3 h compound incubation, HTRF p-ERK T202/Y204, read-out: AsPC-1 p-ERK IC50. Put shortly: as §2
Setting [4] is: 3D cell proliferation (CellTiter Glo-3D).
The mark [5] stands for this setting: Homo sapiens, NCI-H441, 3D cell proliferation (CellTiter Glo-3D).
Where [6] appears, read: Homo sapiens, ASPC1, 3D cell proliferation (CellTiter Glo-3D).

`CCn1c(-c2cc(C#CCN3CCCOCC3)c[n+]([O-])c2[C@H](C)OC)c2c3cc(ccc31)-c1csc(n1)C[C@H](NC(=O)[C@H]1[C@H](C)[C@@H]1C)C(=O)N1CCC[C@H](N1)C(=O)OCC(C)(C)C2` (atropisomer, axis not shown; (Ra)) [Compound Z914-1, 5-(3-(1,4-oxazepan-4-yl)prop-1-yn-1-yl)-(Ra)-3-((6^3S,4S,Z)-4-((1r,2R,3S)-2,3-dimethylcyclopropane-1-carboxamido)-1^1-ethyl-10,10-dimethyl-5,7-dioxo-6^1,6^2,6^3,6^4,6^5,6^6-hexahydro-1^1H-8-oxa-2(4,2)-thiazola-1(5,3)-indola-6(1,3)-pyridazinacycloundecaphane-12-yl)-2-((S)-1-methoxyethyl)pyridine-1-oxide]: the IC50 in the test with NCI-H441 cells (setting [4]) worked out at 0.11 nM; in test [1], 0.27 nM; in test [2] (setting [4]), 0.24 nM; in test [3], 0.19 nM.
For `CCn1c(-c2cc(OCC3(N4CCS(=O)(=O)CC4)CC3)cnc2[C@H](C)OC)c2c3cc(ccc31)-c1csc(n1)C[C@H](NC(=O)[C@H]1[C@H](C)[C@@H]1C)C(=O)N1CCC[C@H](N1)C(=O)OCC(C)(C)C2` [Compound Z449, (1r,2R,3S)—N-((6^3S,4S,Z)-1^2-(5-((1-(1,1-dioxidothiomorpholino)cyclopropyl)methoxy)-2-((S)-1-methoxyethyl)pyridin-3-yl)-1^1-ethyl-10,10-dimethyl-5,7-dioxo-6^1,6^2,6^3,6^4,6^5,6^6-hexahydro-1^1-hydrogen-8-oxa-2(4,2)-thiazola-1(5,3)-indola-6(1,3)-pyridazinacycloundecaphane-4-yl)-2,3-dimethylcyclopropane-1-carboxamide], in that order: 0.34 nM, 0.33 nM, 0.45 nM and 0.21 nM.
For `CCn1c(-c2cc(OCC3(N4CCCOCC4)CC3)cnc2[C@H](C)OC)c2c3cc(ccc31)-c1csc(n1)C[C@H](NC(=O)[C@H]1[C@H](C)[C@@H]1C)C(=O)N1CCC[C@H](N1)C(=O)OCC1(CC1)C2` [Compound Z329, (1r,2R,3S)—N-((3′S,4′S,Z)-2′-(5-((1-(1,4-oxazepan-4-yl)cyclopropyl)methoxy)-2-((S)-1-methoxyethyl)pyridin-3-yl)-1′-ethyl-5′,7′-dioxospiro[cyclopropane-1,10′-8-oxa-2(4,2)-thiazola-1(5,3)-indola-6(1,3)-pyridazinacycloundecaphan]-4′-yl)-2,3-dimethylcyclopropane-1-carboxamide], in that order: 23.1 nM, 8.74 nM, 51.9 nM and 15.7 nM.
On to `CCn1c(-c2cc(C#CCN3CCS(=N)(=O)CC3)cnc2[C@H](C)OC)c2c3cc(ccc31)-c1csc(n1)C[C@H](NC(=O)[C@H]1[C@H](C)[C@@H]1C)C(=O)N1CCC[C@H](N1)C(=O)OCC(C)(C)C2` (atropisomer, axis not shown; (Ra)) [Compound Z850, (1r,2R,3S)—N-((6^3S,4S,Z)-1^1-ethyl-(Ra)-1^2-(5-(3-(1-imino-1-oxo-11^6-thiomorpholino)prop-1-yn-1-yl)-2-((S)-1-methoxyethyl)pyridin-3-yl)-10,10-dimethyl-5,7-dioxo-6^1,6^2,6^3,6^4,6^5,6^6-hexahydro-1^1-8-oxa-2(4,2)-thiazola-1(5,3)-indola-0(1,3)-pyridazinacycloundecaphane-4-yl)-2.3-dimethylcyclopropane-1-carboxamide], for which the IC50 with NCI-H441 cells (setting [5]) stood at 0.13 nM; in test [1] (Homo sapiens, NCI-H441, 3 h) it was 0.25 nM; in test [2] (setting [6]) it was 0.08 nM; in test [3] (Homo sapiens, ASPC1, 3 h), 0.18 nM.
Taken in the same sequence, the figures for `CCn1c(-c2cc(C#CCN3CC(F)(F)C3)cnc2[C@H](C)OC)c2c3cc(ccc31)-c1csc(n1)C[C@H](NC(=O)[C@H]1[C@H](C)[C@@H]1C)C(=O)N1CCC[C@H](N1)C(=O)OCC(C)(C)C2` [Compound Z390-1, (2R,3S)—N-((6^3S,4S,Z)-1^2-(5-(3-(3,3-difluoroazetidin-1-yl)prop-1-yn-1-yl)-2-((S)-1-methoxyethyl)pyridin-3-yl)-1^1-ethyl-10,10-dimethyl-5,7-dioxo-6^1,6^2,6^3,6^4,6^5,6^6-hexahydro-1^1H-8-oxa-2(4,2)-thiazola-1(5,3)-indola-6(1,3)-pyridazinacycloundecaphane-4-yl)-2,3-dimethylcyclopropane-1-carboxamide] were 0.48 nM, 0.4 nM, 0.54 nM and 0.34 nM.
For `CCn1c(-c2cc(C3(C(=O)N4CCN(C)CC4)CC3)cnc2[C@H](C)OC)c2c3cc(ccc31)-c1csc(n1)C[C@H](NC(=O)[C@H]1[C@H](C)[C@@H]1C)C(=O)N1CCC[C@H](N1)C(=O)OCC(C)(C)C2` [Compound Z75, (1r,2R,3S)—N-((6^3S,4S,Z)-1^1-ethyl-1^2-(2-((S)-1-methoxyethyl)-5-(1-(4-methylpiperazine-1-carbonyl)cyclopropyl)pyridin-3-yl)-10,10-dimethyl-5,7-dioxo-6^1,6^2,6^3,6^4,6^5,6^6-hexahydro-1^1H-8-oxa-2(4,2)-thiazola-1(5,3)-indola-6(1,3)-pyridazinacycloundecaphane-4-yl)-2,3-dimethylcyclopropane-1-carboxamide], in that order: 19.4 nM, 18.6 nM, 56.5 nM and 38.7 nM.
Taken in the same sequence, the figures for `CCn1c(-c2cc(C#C[C@@]3(C)CCCN3C)cnc2[C@H](C)OC)c2c3cc(ccc31)-c1csc(n1)C[C@H](NC(=O)[C@H]1[C@H](C)[C@@H]1C)C(=O)N1CCC[C@H](N1)C(=O)OCC(C)(C)C2` (atropisomer, axis not shown; (Ra)) [Compound Z643, (1r,2R,3S)—N-((6^3S,4S,Z)—(Ra)-1-(5-(((R)-1,2-dimethylpyrrolidin-2-yl)ethynyl)-2-((S)-1-methoxyethyl)pyridin-3-yl)-1^1-ethyl-10,10-dimethyl-5,7-dioxo-6^1,6^2,6^3,6^4,6^5,6^6-hexahydro-1^1H-8-oxa-2(4,2)-thiazola-1(5,3)-indola-6(1,3)-pyridazinacycloundecaphane-4-yl)-2,3-dimethylcyclopropane-1-carboxamide] were 0.3 nM, 0.22 nM, 0.64 nM and 0.51 nM.
For `CCn1c(-c2cc(OCCN3CCS(=O)(=O)C(C)(C)C3)cnc2[C@H](C)OC)c2c3cc(ccc31)-c1csc(n1)C[C@H](NC(=O)[C@H]1C[C@@H]1C)C(=O)N1CCC[C@H](N1)C(=O)OCC(C)(C)C2` (atropisomer, axis not shown; (Ra)) [Compound Z665], the IC50 came out at 0.21 nM in the test on NCI-H441 cells (setting [4]), 0.11 nM in test [1], 0.78 nM in test [2] (setting [4]) and 0.32 nM in test [3].
Turning to `CCn1c(-c2cc(C#CCN3CCCOCC3)cnc2[C@H](C)OC)c2c3cc(ccc31)-c1csc(n1)C[C@H](NC(=O)CC1CC1(F)F)C(=O)N1CCC[C@H](N1)C(=O)OCC(C)(C)C2` (atropisomer, axis not shown; (Ra)) [Compound Z932], the IC50 in the test on NCI-H441 cells (setting [5]) was found to be 1.68 nM; in test [1] (Homo sapiens, NCI-H441, 3 h), 1.22 nM; in test [2] (setting [6]), 4.14 nM; in test [3] (Homo sapiens, ASPC1, 3 h) it was 2.14 nM.
Taken in the same sequence, the figures for `CCn1c(-c2cc(C#C[C@H]3COCCN3C)cnc2[C@H](C)OC)c2c3cc(ccc31)-c1csc(n1)C[C@H](NC(=O)[C@H]1[C@H](C)[C@@H]1C)C(=O)N1CCC[C@H](N1)C(=O)OCC(C)(C)C2` (atropisomer, axis not shown; (Ra)) [Compound Z673, (1r,2R,3S)—N-((6^3S,4S,Z)-1^1-ethyl-(Ra)-1^2-(2-((S)-1-methoxyethyl)-5-(((S)-4-methylmorpholin-3-yl)ethynyl)pyridin-3-yl)-10,10-dimethyl-5,7-dioxo-6^1,6^2,6^3,6^4,6^5,6^6hexahydro-1^1H-8-oxa-2(4,2)-thiazola-1(5,3)-indola-6(1,3)-pyridazinacycloundecaphane-4-yl)-2,3-dimethylcyclopropane-1-carboxamide] were 0.23 nM, 0.33 nM, 0.52 nM and 0.27 nM.
For `CCn1c(-c2cc(C#CCN3CCCOCC3)cnc2[C@H](C)OC)c2c3cc(ccc31)-c1csc(n1)C[C@H](NC(=O)C(C)(C)CC)C(=O)N1CCC[C@H](N1)C(=O)OCC(C)(C)C2` (atropisomer, axis not shown; (Ra)) [Compound Z812, N-((6^3S,4S,Z)—(Ra)-1^2-(5-(3-(1,4-oxazepan-4-yl)prop-1-yn-1-yl)-2-((S)-1-methoxyethyl)pyridin-3-yl)-1^1-ethyl-10,10-dimethyl-5,7-dioxo-6^1,6^2,6^3,6^4,6^5,6^6-hexahydro-1^1H-8-oxa-2(4.2)-thiazola-1(5,3)-indola-6(1,3)-pyridazinacycloundecaphane-4-yl)-2.2-dimethylbutanamide], in that order: 1.64 nM, 1.06 nM, 3.52 nM and 1.69 nM.
